In article PMC3489957 (Bioorganic & medicinal chemistry, 2012):

Legend:
in vitro = conditions: human, lymphocytic CEM cells
[1] = Cytotoxicity in Vero cells; assay type: cell-based; conditions: African green monkey, Vero kidney cells
[2] = Cytotoxicity in uninfected PHA-stimulated human PBM cells; assay type: cell-based; conditions: uninfected phytohemagglutinin-stimulated PBM cells

| Compound | IC50 (in vitro) | IC50 [1] | IC50 [2] |
| --- | --- | --- | --- |
| CC(C)(C)OC(=O)N1[C@H](CO)CC(F)(F)[C@@H]1n1ccc(=O)[nH]c1=O [Analogue 19a, 1-[(2R,5S)-N-tert-butyloxycarbonyl-3,3-difluoro-5-(hydroxymethyl)pyrrolidin-2-yl]-uracil] | > 100 µM |  |  |
| CC(C)(C)OC(=O)N1[C@H](CO)CC(F)(F)[C@@H]1n1cnc2c(Cl)ncnc21 [Analogue 26, 9-[(2R,5S)-N-tert-Butyloxycarbonyl-3,3-difluoro-5-(hydroxymethyl)pyrrolidin-2-yl]-6-chloropurine] |  | > 100 µM |  |
| CC(C)(C)OC(=O)N1[C@H](CO)CC(F)(F)[C@H]1n1cnc2c(Cl)ncnc21 [Analogue 27, 9-[(2S,5S)-N-tert-Butyloxycarbonyl-3,3-difluoro-5-(hydroxymethyl)pyrrolidin-2-yl]-6-chloropurine] |  | > 100 µM |  |
| CC(C)(C)OC(=O)N1[C@H](CO)CC(F)(F)[C@H]1n1cnc2c(N)ncnc21 [Analogue 31, 9-[(2S,5S)-N-tert-Butyloxycarbonyl-3,3-difluoro-5-(hydroxymethyl)pyrrolidin-2-yl]-adenine] | > 100 µM | > 100 µM | > 100 µM |
| CC(C)(C)OC(=O)N1[C@H](CO)CC(F)(F)[C@H]1n1cc(F)c(=O)[nH]c1=O [Analogue 18d, 1-[(2S,5S)-N-tert-Butyloxycarbonyl-3,3-difluoro-5-(hydroxymethyl)pyrrolidin-2-yl]-5-fluorouracil] | > 100 µM | > 100 µM |  |
| CC(C)(C)OC(=O)N1[C@H](CO)CC(F)(F)[C@H]1n1cnc2ncnc(Cl)c21 [Analogue 29, 7-[(2S,5S)-N-tert-Butyloxycarbonyl-3,3-difluoro-5-(hydroxymethyl)pyrrolidin-2-yl]-6-chloropurine] |  | > 100 µM |  |
| CC(C)(C)OC(=O)N1[C@H](CO)CC(F)(F)[C@@H]1n1cnc2ncnc(N)c21 [Analogue 32, 7-[(2R,5S)-N-tert-Butyloxycarbonyl-3,3-difluoro-5-(hydroxymethyl)pyrrolidin-2-yl]-adenine] | > 100 µM | > 100 µM | > 100 µM |
| CC(C)(C)OC(=O)N1[C@H](CO)CC(F)(F)[C@H]1n1ccc(=O)[nH]c1=O [Analogue 18a, 1-[(2S,5S)-N-tert-Butyloxycarbonyl-3,3-difluoro-5-(hydroxymethyl)pyrrolidin-2-yl]-uracil] | > 100 µM | > 100 µM |  |
| CC(C)(C)OC(=O)N1[C@H](CO)CC(F)(F)[C@@H]1n1cc(F)c(=O)[nH]c1=O [Analogue 19d, 1-[(2R,5S)-N-tert-Butyloxycarbonyl-3,3-difluoro-5-(hydroxymethyl)pyrrolidin-2-yl]-5-fluorouracil] | > 100 µM | > 100 µM |  |
| CC(C)(C)OC(=O)N1[C@H](CO)CC(F)(F)[C@@H]1n1cnc2c(N)ncnc21 [Analogue 30, 9-[(2R,5S)-N-tert-Butyloxycarbonyl-3,3-difluoro-5-(hydroxymethyl)pyrrolidin-2-yl]-adenine] | > 100 µM | > 100 µM | > 100 µM |
| CC(C)(C)OC(=O)N1[C@H](CO)CC(F)(F)[C@H]1n1cnc2ncnc(N)c21 [Analogue 33, 7-[(2S,5S)-N-tert-Butyloxycarbonyl-3,3-difluoro-5-(hydroxymethyl)pyrrolidin-2-yl]-adenine] | > 100 µM | > 100 µM | > 100 µM |
| CC(C)(C)OC(=O)N1[C@H](CO)CC(F)(F)[C@@H]1n1cnc2ncnc(Cl)c21 [Analogue 28, 7-[(2R,5S)-N-tert-Butyloxycarbonyl-3,3-difluoro-5-(hydroxymethyl)pyrrolidin-2-yl]-6-chloropurine] |  | > 100 µM |  |
